Like-named read-outs stand apart in the source and are kept apart here.
System: primary lymphoblasts from pediatric patients with acute lymphoblastic leukemia
Assay: Resazurin cytotoxicity assay in primary lymphoblasts
Assay type: cell-based
Details: Homo sapiens
Description: Peripheral blood samples were collected from 1–10-year-old pediatric patients with newly diagnosed ALL in the acute phase of the disease or from adult healthy volunteers at N.N. Blokhin National Research Center of Oncology. The Ethical Committee of the N.N. Blokhin National Research Center of Oncology approved this study, and written informed consents were provided. […] were isolated by centrifugation with Ficoll-Isopaque (“Paneco”, Russia) and then cultured in the RPMI-1640 media (“Paneco”, Russia) supplemented with 20% FBS (“Biowest”, France), 2 mM L-glutamine, 0.5 ME/mL penicillin and 0.5 µg/mL streptomycin (“Paneco”, Russia) and 10 mg/L phytohaemagglutinin (“Paneco”, Moscow, Russia).
Isolated PBMCs were seeded into 96-well plates (2 × 10^6 cells/well) and treated with 10S-E2 at a wide range of concentrations (2–200 µM). Cell viability was analyzed after 24 h of incubation, assessing metabolic activity with the addition of 0.177 mg/mL of resazurin at 8–10 h before the end of the incubation. Fluorescence intensity was evaluated using a Fluoroskan FL microplate fluorimeter (“Thermo Scientific”, Waltham, MA, USA). The IC50 values were determined using GraphPad Prism (Ver.7.0) software. The experiments were performed in triplicate.

Structure (SMILES): CCCCCCNCC(O)c1ccc(OCc2ccccc2)cc1 (stereo not drawn) [10S-E2, 1-[4-(benzyloxy)phenyl]-2-(hexylamino)ethanol]
- IC50 (24 h, patient code 3, 24 h, read-out: IC50 of cytotoxic effect): 40.9 ± 3.12 µM
- IC50 (24 h, patient code 4, 24 h, read-out: IC50 of cytotoxic effect): 43.2 ± 9.48 µM
- IC50 (24 h, patient code 7, 24 h, read-out: IC50 of cytotoxic effect): 43 ± 0.71 µM
- IC50 (24 h, patient code 8, 24 h, read-out: IC50 of cytotoxic effect): 60.6 ± 0.97 µM
- IC50 (24 h, patient code 10, 24 h, read-out: IC50 of cytotoxic effect): 71.3 ± 5.59 µM
- IC50 (24 h, patient code 12, 24 h, read-out: IC50 of cytotoxic effect): 75.7 ± 4.63 µM
- IC50 (24 h, patient code 20, 24 h, read-out: IC50 of cytotoxic effect): 64.2 ± 0.55 µM
- IC50 (24 h, patient code 21, 24 h, read-out: IC50 of cytotoxic effect): 49.4 ± 1.95 µM
- IC50 (24 h, patient code 23, 24 h, read-out: IC50 of cytotoxic effect): 55.2 ± 2.25 µM
- IC50 (24 h, patient code 24, 24 h, read-out: IC50 of cytotoxic effect): 70.3 ± 2.54 µM
- IC50 (24 h, patient code 25, 24 h, read-out: IC50 of cytotoxic effect): 80.3 ± 4.09 µM
- IC50 (24 h, patient code 30, 24 h, read-out: IC50 of cytotoxic effect): 52.4 ± 0.07 µM
- IC50 (24 h, patient code 31, 24 h, read-out: IC50 of cytotoxic effect): 63.2 ± 1.42 µM
- IC50 (24 h, patient code 33, 24 h, read-out: IC50 of cytotoxic effect): 67.6 ± 4.02 µM
- IC50 (24 h, patient code 34, 24 h, read-out: IC50 of cytotoxic effect): 55 ± 1.91 µM
- IC50 (24 h, patient code 35, 24 h, read-out: IC50 of cytotoxic effect): 65.9 ± 0.27 µM
- IC50 (24 h, patient code 37, 24 h, read-out: IC50 of cytotoxic effect): 69.8 ± 3.66 µM
- IC50 (24 h, patient code 39, 24 h, read-out: IC50 of cytotoxic effect): 71.3 ± 2.59 µM
- IC50 (24 h, patient code 46, 24 h, read-out: IC50 of cytotoxic effect): 71.5 ± 2.08 µM
- IC50 (primary lymphoblast samples from 19 patients diagnosed with ALL, read-out: IC50 of cytotoxic effect, range over samples): 40 to 70 µM
